{"source": "patent US20240103005A1", "about": "“N-ACRYLOYLINDOLES AND METHODS OF USE” (The University of Hong Kong, priority 2022, published 2024)", "system": "HepG2 cells", "assay": "Imaging oxidized thiols in HepG2 cells under oxidative stress by NAI/NAIA couple", "type": "cell-based", "conditions": "50 μM, 10 min", "method": "Imaging Oxidized Thiols in HepG2 Cells Under Oxidative Stress by NAI/NAIA Couple\nHepG2 cells were plated on a 8-well Nunc Lab-Tek chambered slide system and allowed to grow in complete medium at 37° C. with 5% CO2 to ca. 70% confluency. The cells were then pretreated with solvent vehicles, H2O2 (0.5 or 1 mM) or H2O2 (1 mM)+NAC (5 mM) in complete medium for 15 min at 37° C. The cells were washed with PBS and incubated with NAI compound 3 (50 μM) in complete medium for 10 min at 37° C. After that, the cells were washed with PBS and fixed by 4% paraformaldehyde in PBS at room temperature for 15 min. […] The cells were washed thrice with PBS and then imaged in PBS by confocal fluorescence microscopy.\nConfocal fluorescence microscopy imaging was performed with a Zeiss laser scanning microscope 880 with a 20× water-immersion objective lens using ZEN 2.3 (Black Version) software (Carl Zeiss) with 3× magnification zoom-in. […] A region of interest (ROI) was created around individual cell, and cellular fluorescence intensity was measured. The reported average cellular fluorescence intensity was determined by averaging the measured intensity from 30 different cells from 3 different biological replicates/group. […]\nTherefore, we sought to utilize the NAI/NAIA couple to capture oxidized thiols and image them by confocal fluorescence microscopy (FIGS. 12A-12B). […]", "data": [{"smiles": "C=CC(=O)N1CCc2cc(OCC(=O)OC(C)(C)C)ccc21", "note": "[compound 3b]", "values": [{"measurement": "trapping of free thiols in live cells", "result": "excellent trapping of free thiols"}]}]}
